“Also recorded” adds a separate entry of the source.
Key:
Assay type in all cases: in vivo, mouse
[1] = test system: naloxone-precipitated opioid withdrawal; test: Naloxone-precipitated opioid withdrawal in paclitaxel-treated mice
Protocol: Alter the last injection of morphine (on day 28 for two-phase treatments, on day 13 for coadministration treatment), we challenged WT or CB2KO mice from experiments 2, 3, and 4 with vehicle, followed 30 minutes later by naloxone (5 mg/kg i.p.) to precipitate opioid receptor-mediated withdrawal. Mice were video-recorded for subsequent scoring of withdrawal-like behaviors for a 30-minute interval after challenge with vehicle or naloxone.
Mice were video-taped, and the number of jumps was scored in 5-minute intervals for a total observation period of 30 minutes after challenge with either saline or naloxone (5 mg/kg i.p.).

[2] = test system: paclitaxel-induced mechanical allodynia; test: Paclitaxel-induced mechanical allodynia (electronic von Frey); conditions: 10 mg/kg per day i.p.×12 days
Protocol: (§1) In all studies, the experimenter was blinded to the treatment condition, and mice were randomly assigned to experimental conditions. Paclitaxel (4 mg/kg i.p.) was administered four times on alternate days (cumulative dose, 16 mg/kg i.p.) to induce neuropathic pain as described previously by our group (Deng et al., 2015). Control mice received an equal volume of cremophor-vehicle. Development of paclitaxel-induced allodynia was assessed on day 0, 4, 7, 11, and 14.
(§2) Effects of pharmacologic manipulations were assessed at 30 minutes after drug administration during the maintenance phase of paclitaxel-induced neuropathy (i.e., beginning day 18-20 after initial paclitaxel injection).
(§3) In experiments 2 and 3, pharmacologic manipulations were performed once daily for 12 consecutive days in each of the two phases of chronic treatment. Four days separated phase 1 and phase 2 chronic dosing in all studies comprising two phases of chronic dosing. Experiments 2 and 3 were performed concurrently using overlapping cohorts that were tested with a single vehicle (phase 1), vehicle (phase 2) group.
(§4) We then assessed the antiallodynic efficacy of chronic systemic administration of vehicle or morphine (10 mg/kg per day i.p.×12 days) administered during phase 2 in the same animals. Responsiveness to mechanical and cold stimulation was evaluated on treatment days 1, 4, 8, and 12 during phase 1 and on treatment days 16, 19, 23, and 27 during phase 2 (i.e., phase 2 started on day 16).
(§5) In experiment 4, we evaluated the impact of coadministration of morphine (10 mg/kg i.p.×12 days) with a submaximal dose of LY 2828360 (0.1 mg/kg per day i.p.×12 days) in WT and CB2 KO mice.
Paw withdrawal thresholds (grams) to mechanical stimulation were measured in duplicate for each paw using an electronic von Frey anesthesiometer supplied with a 90-g probe (model Alemo 2390-5; IITC, Woodland Hills, Calif.) as described previously. Mice were placed on an elevated metal mesh table and allowed to habituate under individual, inverted plastic cages to the testing platform for at least 20 minutes until exploratory behavior had ceased. Alter the habituation period, a force was applied to the midplantar region of the hind paw with a semiflexible tip connected to the anesthesiometer. Mechanical stimulation was terminated when the animal withdrew its paw, and the value of the applied force was recorded in grams. Mechanical paw withdrawal thresholds were obtained in duplicate for each paw and are reported as the mean of duplicate determinations from each animal, averaged across animals, for each group.

[3] = test system: paclitaxel-induced cold allodynia; test: Paclitaxel-induced cold allodynia (acetone); conditions: 10 mg/kg per day i.p.×12 days
Protocol: as §1, §2, §3, §4, §5
Response time (seconds) spent attending to (i.e., elevating, licking, biting, or shaking) the paw stimulated with acetone (Sigma-Aldrich) was measured in triplicate for each paw to assess cold allodynia as previously published. An acetone bubble (approximately 5 to 6 p.1) formed at the end of a blunt 1-ml syringe hub was gently applied to the plantar surface of the hind paw. Care was taken not to apply mechanical stimulation to the hind paw with the syringe itself. The total time the animal spent attending to the acetone-stimulated paw (i.e., elevation, shaking, or licking) was recorded over 1 minute after acetone application. Acetone was applied three times to each paw with a 3-minute interval between applications. Values for each animal were calculated as the mean of six determinations of acetone responsiveness derived from each mouse.

[4] = WT mice, days 16-27, 10 mg/kg/day

`CN1CC[C@]23c4c5ccc(O)c4O[C@H]2[C@@H](O)C=C[C@H]3[C@H]1C5` [morphine, reference compound] was tested, and the “naloxone-precipitated jumping, Veh (1)-Mor (2) vs Veh (1)-Veh (2)” value ([1]; paclitaxel-treated CB2KO mice) was “precipitated jumping”, the “number of naloxone-precipitated jumps, vehicle (1)-morphine (2) vs vehicle (1)-vehicle (2)” value ([1]; paclitaxel-treated WT mice, morphine 10 mg/kg per day×12 days, naloxone 5 mg/kg i.p.) was “exhibited a greater number of jumps” and the “naloxone-precipitated withdrawal, Mor (1)-LY (2) vs Veh (1)-Veh (2)” value ([1]; paclitaxel-treated WT mice, morphine in phase 1) was “did not precipitate withdrawal”. The “mechanical allodynia, chronic phase 1 morphine” value ([2]; CB2KO mice) was “completely absent on day 8 and day 12”, the “mechanical allodynia, chronic phase 1 morphine” value ([2]; WT mice, days 4, 8, 12) was “tolerance developed to the antiallodynic effects of morphine” and the “mechanical allodynia, phase 2 morphine after phase 1 vehicle” value [2, 4] was “only suppressed paclitaxel-induced mechanical and cold allodynia on day 16; also recorded: no longer efficacious”. For the same compound, the “cold allodynia, chronic phase 1 morphine” value ([3]; CB2KO mice) was “completely absent on day 8 and day 12”, the “cold allodynia, chronic phase 1 morphine” value ([3]; WT mice, days 4, 8, 12) was “tolerance developed to the antiallodynic effects of morphine” and the “cold allodynia, phase 2 morphine after phase 1 vehicle” value [3, 4] was “only suppressed paclitaxel-induced mechanical and cold allodynia on day 16; also recorded: no longer efficacious”.

— US20190314379A1, “METHODS OF USING CANNABINOID CB2 RECEPTOR AGONIST COMPOSITIONS TO SUPPRESS AND PREVENT OPIOID TOLERANCE AND WITHDRAWAL IN A SUBJECT” (Indiana University Research and Technology Corporation, priority 2018, published 2019)
